From patent publication US6001850A, “Thienopyridine derivatives, their production and use” (Takeda Chemical Industries, Ltd., priority 1996, dated 1999)
pIC50: −log10 of the molar value.

Target: T1, human GnRH receptor (Homo sapiens, UniProt P30968)
T1 construct: expressed in transfected cells; host or cells: CHO (Chinese Hamster Ovary) cells, membrane fraction
T1 sequence (P30968 1-328): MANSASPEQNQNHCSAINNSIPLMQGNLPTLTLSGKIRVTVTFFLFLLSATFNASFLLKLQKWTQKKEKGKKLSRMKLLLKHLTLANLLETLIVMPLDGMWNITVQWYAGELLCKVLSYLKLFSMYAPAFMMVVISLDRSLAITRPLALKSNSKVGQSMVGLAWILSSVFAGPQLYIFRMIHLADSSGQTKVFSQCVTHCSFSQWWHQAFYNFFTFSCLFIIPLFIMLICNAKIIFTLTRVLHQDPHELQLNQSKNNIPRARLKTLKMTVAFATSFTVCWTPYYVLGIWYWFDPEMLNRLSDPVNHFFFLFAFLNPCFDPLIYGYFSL
Experiment: Determination of inhibitory rate of 125I-leuprorelin binding (membrane fraction of CHO cells expressing human GnRH receptors)
Details: CHO cell membrane expressing human GnRH receptors, 25° C., 60 minutes, Hill plot
Method: (1)Preparation of ^125 I-leuprorelin:
Ten μl of 3×10^-4 M aqueous solution of leuprorelin and 10 μl of 0.01 mg/ml lactoperoxidase in 0.1M HEPES buffer (pH 7.4) were taken into a tube, to which was added 10 μl (37 MBq in 0.1 M HEPES buffer (pH7.4)) of an Na^125 I solution. The mixture was stirred, to which was added 10 μl of 0.001% H2O2, then reaction was allowed to proceed for 20 minutes at room temperature. To the reaction mixture was added 700 μl of a 0.05% TFA solution to cease the reaction. The product was purified by means of reversed phase HPLC. Conditions of HPLC are as follows. ^125 I-leuprorelin was eluted at a retention time of 26 to 27 minutes.
(2) Preparation of membrane fraction of CHO (Chinese Hamster Ovary) cells containing human GnRH receptors
CHO cells (10^9) expressing human GnRH receptors were suspended in a phosphate-buffered saline supplemented with 5 mM EDTA (ethylenediamine tetraacetate) (PBS-EDTA). […]
The reaction was allowed to proceed at 25° C. for 60 minutes. […] After completion of the filtration, radioactivity of the ^125 I-leuprorelin remaining on the filter paper was measured with a γ-counter.
By calculation of the following formula, the binding inhibitory rate (PMB, %) of each test compound was determined.
TB: Maximum binding radioactivity.
SB: Radioactivity obtained when a compound was added. […]

For `C=C(C)COc1ccc(-c2sc3c(c2CN(C)Cc2ccccc2)c(=O)c(C(=O)C(C)C)cn3Cc2c(F)cccc2F)cc1` [Example 3(4), 2-[4-(2-methyl-2-propen-1-yl-oxy)phenyl]-4,7-dihydro-7-(2,6-difluorobenzyl)-3-(N-benzyl-N-methylaminomethyl)-5-isobutyryl-4-oxothieno[2,3-b]pyridine], the pIC50 was 8.00.
